Solubility and IC50 data for two compounds are collected here from patent US20070043018A1, “2"-Hydroxynicotianamine, process for producing the same and angiotensin converting enzyme inhibitor, hypotensive drug and health food” (JAPAN SCIENCE AND TECHNOLOGY AGENCY, priority 2003, published 2007).

Series [1] is described as follows: Solubility (other chemical and physical properties). Type of series: physicochemical. To be noted: in water, dilute acid and dilute alkali. The method, then: While the novel substance of the invention is positive to the ninhydrin reaction, the reaction is suppressed by Cu^2+ ions. […] Almost no usual amino acids are detected when amino acids are detected with an automatic amino acid analyzer after decomposing the novel substance of the invention with 6N HCl at 110° C. for 16 hours, and the decomposition product has a complicated composition. The novel substance of the invention has a melting point of 275 to 280° C. and a specific rotation [α]D^23.6 of −40° (c=0.4 g/100 ml; solvent=water) and [α]D^23.6 of −34.5° (c=0.2 g/100 ml/; solvent=1N HCl).

For series [2], the target named is T1, ACE from the lung of rabbit (Oryctolagus cuniculus, UniProt P12822).
T1 construct: ACE used was a freeze dry product of ACE from the lung of rabbit (manufactured by Sigma); purchased Sigma; host or cells: rabbit lung tissue
T1 sequence (P12822 34-1310): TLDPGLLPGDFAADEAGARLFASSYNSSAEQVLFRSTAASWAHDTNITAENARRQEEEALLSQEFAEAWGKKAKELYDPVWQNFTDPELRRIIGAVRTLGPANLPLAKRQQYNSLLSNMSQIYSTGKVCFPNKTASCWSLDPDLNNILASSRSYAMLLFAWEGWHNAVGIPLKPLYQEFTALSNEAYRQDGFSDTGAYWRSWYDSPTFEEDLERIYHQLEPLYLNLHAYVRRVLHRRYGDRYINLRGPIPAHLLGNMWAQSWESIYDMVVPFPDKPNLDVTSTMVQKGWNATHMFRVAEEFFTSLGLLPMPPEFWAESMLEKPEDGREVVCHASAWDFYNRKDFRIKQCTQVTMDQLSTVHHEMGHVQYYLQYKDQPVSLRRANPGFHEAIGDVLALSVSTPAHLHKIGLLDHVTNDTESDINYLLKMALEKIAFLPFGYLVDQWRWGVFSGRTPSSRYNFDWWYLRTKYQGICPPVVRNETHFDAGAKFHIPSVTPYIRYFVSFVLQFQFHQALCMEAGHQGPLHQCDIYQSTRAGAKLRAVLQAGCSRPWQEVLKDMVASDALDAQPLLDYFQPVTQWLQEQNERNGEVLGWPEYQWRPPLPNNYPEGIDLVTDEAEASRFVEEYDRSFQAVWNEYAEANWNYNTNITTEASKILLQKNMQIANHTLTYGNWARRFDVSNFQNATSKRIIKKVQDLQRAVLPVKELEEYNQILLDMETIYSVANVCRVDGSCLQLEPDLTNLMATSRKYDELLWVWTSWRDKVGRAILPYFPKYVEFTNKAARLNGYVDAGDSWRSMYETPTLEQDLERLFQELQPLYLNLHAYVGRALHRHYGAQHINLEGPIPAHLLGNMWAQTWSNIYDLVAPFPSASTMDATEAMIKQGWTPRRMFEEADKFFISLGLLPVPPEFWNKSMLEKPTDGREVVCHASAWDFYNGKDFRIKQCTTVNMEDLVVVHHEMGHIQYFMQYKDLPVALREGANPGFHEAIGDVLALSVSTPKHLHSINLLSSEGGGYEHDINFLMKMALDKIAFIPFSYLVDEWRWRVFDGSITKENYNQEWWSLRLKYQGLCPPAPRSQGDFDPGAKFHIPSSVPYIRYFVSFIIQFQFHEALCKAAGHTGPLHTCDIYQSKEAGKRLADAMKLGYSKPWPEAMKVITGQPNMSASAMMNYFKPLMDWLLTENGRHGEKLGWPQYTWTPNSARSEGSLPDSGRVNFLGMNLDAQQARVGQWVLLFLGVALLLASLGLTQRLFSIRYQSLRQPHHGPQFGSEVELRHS
In words: Measurement of ACE inhibitory activity by Cushman and Cheung method. To be noted: substrate hippuryl-L-histidyl-L-leucine, pH 8.3, 37° C. for 30 minutes, no pre-incubation; determined by extrapolation on the graph; read-out: concentration that indicates 50% inhibition (IC50) of ACE. It is filed as biochemical. An excerpt:
The separation and purification process comprises the steps of: injecting the extract solution obtained in the extraction process into a column filled with the cation exchange resin or anion exchange resin by a known method; washing the column with water and eluting the column with the aqueous electrolyte solution as the eluant; and measuring the ACE inhibitory activity of the fractions obtained to collect the fractions having the ACE inhibitory activity. Known methods such as the method of Cushman and Cheung may be used for measuring the ACE inhibitory activity.
<Measurement of ACE Inhibitory Activity>
The ACE inhibitory activity was measured as follows by Cushman and Cheung method. […]
After mixing the compositions of the reaction solution (i), (ii), (iii), and (iv), enzyme solution (v) was added to the mixed solution without pre-incubation, and the solution was allowed to react (incubate) at 37° C. for 30 minutes. […] The extract solution was evaporated to dryness using a centrifugal evaporator, and the residue was dissolved in 1 ml of water to measure the concentration of the extract by absorbance at 228 nm using a spectrophotometer. The measured absorbance was defined as ODs (ODs1, ODs2 and ODs3) for the measurements using samples solutions 1, 2 and 3, respectively. […]

For the compound `N[C@H](C(=O)O)C(O)CN[C@@H](CCN1CC[C@H]1C(=O)O)C(=O)O` (stereo partly drawn) [2″-hydroxynicotianamine], the solubility result in series [1] is “soluble in water, dilute acid and dilute alkali”. The IC50 in series [2] was 80 nM.
For `N[C@@H](CCN[C@@H](CCN1CC[C@H]1C(=O)O)C(=O)O)C(=O)O` [nicotianamine, Nicotianamine], the IC50 in series [2] is 85 nM.
